Experimental data taken from US20090221624A1, “4-AMINOQUINOLINE COMPOUNDS FOR TREATING VIRUS-RELATED CONDITIONS” (priority 2005, published 2009).
Like-named read-outs stand apart in the source and are kept apart here.

Columns and labels:
[1] = system: SINV (SR19-F-luc cells); assay: SINV antiviral activity, SR19-F-luc cells, Firefly luciferase; format: cell-based; conditions: Sindbis virus; for inhibition at 25 µM: primary screening, 25 μM final concentration, 24 hours, percent inhibition of viral replication, read-out: SINV Inh; for EC50: secondary screening, SR19-F-luc cells
[2] = system: EBOV minigenome; assay: microbe, parasite or virus in culture; format: cell-based, Ebola virus; conditions: for inhibition at 25 µM / EC50: Zaire ebolavirus; for inhibition at 25 µM: 24 h, read-out: EBOV Inh; for EC50: read-out: EBOV EC50
[3] = system: WNV (WN-hRuPac cells); assay: WNV antiviral activity, WN-hRuPac cells, Renilla luciferase; format: cell-based, West Nile virus; conditions: for EC50 / inhibition at 25 µM: West Nile virus; for EC50: Secondary Data, WNV, read-out: WNV EC50; for inhibition at 25 µM: primary screening, 25 μM final concentration, 24 hours, percent inhibition of viral replication, read-out: WNV Inh; for WNV TI: therapeutic index CC50/EC50, WNV
[4] = system: YFV (YF-hRuPac cells); assay: microbe, parasite or virus in culture; format: cell-based, yellow fever virus; conditions: for inhibition at 25 µM / EC50: Yellow fever virus; for inhibition at 25 µM: 24 h, read-out: YFV Inh; for EC50: read-out: YFV EC50
[5] = system: HCV replicon (Clone A cells, Huh7, subgenomic hepatits C virus RNA); assay: HCV Neo screening assay (HCV replicon, NPTII ELISA); format: cell-based, hepatitis C virus; conditions: for EC50 / inhibition at 25 µM: Hepatitis C virus, Huh-7; for EC50: Secondary Data, HCV; for inhibition at 25 µM: primary screening, 25 μM final concentration, 24 hours, percent inhibition of viral replication, read-out: HCV Inh; for HCV TI: therapeutic index CC50/EC50, HCV
[6] = system: RSV minigenome; assay: RSV minigenome-dependent β-galactosidase expression assay (RSV β-Gal); format: cell-based, respiratory syncytial virus; conditions: for EC50: Secondary Data, RSV, read-out: RSV EC50; for inhibition at 25 µM: primary screening, 25 μM final concentration, 24 hours, percent inhibition of viral replication, read-out: RSV Inh; for RSV TI: therapeutic index CC50/EC50, RSV
[7] = in vitro
[8] = human respiratory syncytial virus

Row | Compound | inhibition at 25 µM [1] [%] | inhibition at 25 µM [2] [%] | EC50 [3] [µM] | inhibition at 25 µM [3] [%] | WNV TI [3] | YFV TI [4] | inhibition at 25 µM [4] [%] | EC50 [4] [µM] | inhibition at 25 µM [5] [%] | EC50 [6, 8] [µM] | inhibition at 25 µM [6, 8] [%] | RSV TI [6] | CC50 ([7]; DNG CC50) [µM] | CC50 ([7]; EBOV CC50) [µM] | CC50 ([7]; HCV CC50) [µM] | CC50 ([7]; RSV CC50) [µM] | CC50 ([7]; SINV CC50) [µM] | CC50 ([7]; WNV CC50) [µM] | CC50 ([7]; YFV CC50) [µM] | EC50 [2] [µM] | further results
1 | Cc1ccc(Nc2cc(C)nc3ccc(C)cc23)cc1 [Compound 6] | 76.8 | 42.7 | 38.7 | 79.1 | 0.91 | 2.73 | 77.7 | 12.9 | 187 | 9.86 | 91.2 | 3.57 | 35.2 | 35.2 | 11.7 | 35.2 | 35.2 | 35.2 | 35.2 | – | EC50 [1]: 2300 nM; EC50 [5]: 14 µM; HCV TI [5]: 0.84
2 | Cc1cccc(Nc2c3c(nc4ccccc24)CCC3)c1 [Compound 11] | 81.7 | 62.7 | 9.79 | 75 | 2.94 | 5.74 | 79.1 | 5.01 | 143 | 2.9 | 99.5 | 9.91 | 28.8 | 28.8 | 9.67 | 28.8 | 28.8 | 28.8 | 28.8 | 25.9 | EC50 [1]: 2800 nM; EC50 [5]: 3.37 µM; HCV TI [5]: 2.87
3 | CCOC(=O)c1cnc2c(Cl)c(Cl)ccc2c1NCc1ccco1 [Compound 19] | 11.9 | 0.97 | 3.98 | 80.6 | 5.25 | 7.98 | 93.2 | 2.62 | 50.9 | 1.77 | 82.3 | 11.81 | 20.9 | 20.9 | – | 20.9 | 20.9 | 20.9 | 20.9 | 75 | –
4 | Cc1ccc(Nc2c3c(nc4ccc(C)cc24)CCC3)cc1 [Compound 28] | 81.3 | 19.2 | 17.4 | 75.2 | 2.52 | 6.45 | 75 | 6.79 | 155 | 4.58 | 93.7 | 9.56 | 43.8 | 43.8 | 6.82 | 43.8 | 43.8 | 43.8 | 43.8 | – | EC50 [1]: 2730 nM; EC50 [5]: 7.47 µM; HCV TI [5]: 0.91
5 | Cc1cc(Nc2ccc(C)c(Cl)c2)c2cccc(C)c2n1 [Compound 50] | 65.8 | 42.6 | 6.3 | 82 | 10.51 | 19.41 | 92.2 | 3.41 | 138 | 6.76 | 85.5 | 9.79 | 66.2 | 66.2 | 7.32 | 66.2 | 66.2 | 66.2 | 66.2 | – | EC50 [5]: 8.62 µM; HCV TI [5]: 0.85
6 | CCOc1ccc2nc(C)cc(Nc3ccc(Cl)cc3)c2c1 [Compound 59] | 93.5 | 92.2 | 10.9 | 83.7 | 1.94 | 4.82 | 84.6 | 4.4 | 140 | 3.26 | 99.7 | 6.5 | 21.2 | 21.2 | 7.45 | 21.2 | 21.2 | 21.2 | 21.2 | 3.23 | EC50 [5]: 6.07 µM; HCV TI [5]: 1.23
7 | CCOC(=O)c1cnc2c(OC)cccc2c1NCc1ccccc1 [Compound 62] | 81.3 | 97.4 | – | 67.7 | – | – | 76.6 | – | -5.83 | 3.73 | 99 | 11.66 | 43.5 | 43.5 | – | 43.5 | 43.5 | 43.5 | 43.5 | 75 | –
8 | CCOC(=O)c1cnc2c(OC)cccc2c1NCc1ccco1 [Compound 67] | 68 | 86.6 | – | 33.5 | – | – | 70.7 | – | 5.39 | 1.2 | 98.3 | 24.88 | 29.9 | 29.9 | – | 29.9 | 29.9 | 29.9 | 29.9 | 20.1 | –
9 | CCOC(=O)c1cnc2c(OC)cccc2c1NCc1cccnc1 [Compound 68] | 72.8 | 74.5 | – | 49.7 | – | – | 71.8 | – | 44.7 | 3 | 98.9 | 17 | 51 | 51 | – | 51 | 51 | 51 | 51 | 68.7 | –
10 | CCOC(=O)c1cnc2c(OC)cccc2c1NCCCO [Compound 70] | 64.5 | 74.7 | – | 14.6 | – | – | 62.6 | – | 55.6 | 3.02 | 95.8 | 15.15 | 45.8 | 45.8 | ≥ 75 | 45.8 | 45.8 | 45.8 | 45.8 | 69.7 | –
11 | COc1ccccc1Nc1cc(C)nc2c(C)c(C)cc(N)c12 [Compound 77] | – | – | – | – | – | – | – | – | – | – | – | 11.07 | 52.6 | 52.6 | – | 52.6 | 52.6 | 52.6 | 52.6 | 75 | EBOV Inh [2]: 94.37%; EC50 [6]: 4.75 µM
